Laboratory results taken from PubChem BioAssay (NCI).
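Following 48 hours of exposure in 96-well plates, responses at five concentrations were used to interpolate endpoints linearly. TGI: total growth inhibition.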

Columns and labels:
Assay in all cases: NCI anticancer screen, dose series, 48 h
IGROV1 ovarian = tested on: IGROV1 ovarian
MDA-MB-435 = tested on: MDA-MB-435
M14 melanoma = tested on: M14 melanoma
CCRF-CEM leukemia = tested on: CCRF-CEM leukemia
PC-3 prostate = tested on: PC-3 prostate
SW-620 colon = tested on: SW-620 colon
ACHN renal = tested on: ACHN renal
SK-MEL-5 melanoma = tested on: SK-MEL-5 melanoma
UACC-62 melanoma = tested on: UACC-62 melanoma
NCI-H226 lung = tested on: NCI-H226 lung
BT-549 breast = tested on: BT-549 breast
SF-539 CNS = tested on: SF-539 CNS
UO-31 renal = tested on: UO-31 renal
OVCAR-5 ovarian = tested on: OVCAR-5 ovarian
LOX IMVI melanoma = tested on: LOX IMVI melanoma
HOP-92 NSCLC = tested on: HOP-92 NSCLC
MDA-N = tested on: MDA-N
OVCAR-8 ovarian = tested on: OVCAR-8 ovarian
MOLT-4 leukemia = tested on: MOLT-4 leukemia
HS 578T breast = tested on: HS 578T breast
HOP-62 NSCLC = tested on: HOP-62 NSCLC
NCI-H23 lung = tested on: NCI-H23 lung
HCC-2998 colon = tested on: HCC-2998 colon
KM12 colon = tested on: KM12 colon
786-0 renal = tested on: 786-0 renal
HCT-15 colon = tested on: HCT-15 colon
CAKI-1 renal = tested on: CAKI-1 renal
EKVX NSCLC = tested on: EKVX NSCLC
T-47D breast = tested on: T-47D breast
DU-145 prostate = tested on: DU-145 prostate
MCF7 breast = tested on: MCF7 breast
OVCAR-3 ovarian = tested on: OVCAR-3 ovarian
SN12C renal = tested on: SN12C renal
A498 renal = tested on: A498 renal
NCI-H522 lung = tested on: NCI-H522 lung
K-562 leukemia = tested on: K-562 leukemia
HCT-116 colon = tested on: HCT-116 colon
RXF 393 renal = tested on: RXF 393 renal
HT29 colon = tested on: HT29 colon
UACC-257 melanoma = tested on: UACC-257 melanoma
COLO 205 colon = tested on: COLO 205 colon
SNB-19 CNS = tested on: SNB-19 CNS
OVCAR-4 ovarian = tested on: OVCAR-4 ovarian
SR leukemia = tested on: SR leukemia
SNB-75 CNS = tested on: SNB-75 CNS
MDA-MB-231 breast = tested on: MDA-MB-231 breast
U251 CNS = tested on: U251 CNS
NCI/ADR-RES ovarian = tested on: NCI/ADR-RES ovarian
TK-10 renal = tested on: TK-10 renal
SK-MEL-28 melanoma = tested on: SK-MEL-28 melanoma
SK-MEL-2 melanoma = tested on: SK-MEL-2 melanoma
HL-60(TB) leukemia = tested on: HL-60(TB) leukemia
SF-295 CNS = tested on: SF-295 CNS
NCI-H460 lung = tested on: NCI-H460 lung
SF-268 CNS = tested on: SF-268 CNS
A549 NSCLC = tested on: A549 NSCLC

With `CC(C)(C)c1ccc(-n2c3nc(=O)n(-c4ccccc4C(F)(F)F)c(=O)c-3cc3ccccc32)cc1` as the molecule, how does the TGI (IGROV1 ovarian) read?
Its TGI is over 100 µM.

And the TGI (MDA-MB-435)?
Its TGI is 35.6 µM.

And the TGI (M14 melanoma)?
Its TGI is 32.3 µM.

What about the TGI (CCRF-CEM leukemia) of the same molecule?
Its TGI is 41.9 µM.

What about the TGI (PC-3 prostate) of the same molecule?
The TGI was 51 µM.

And the TGI (SW-620 colon)?
The TGI was 62.8 µM.

What about the TGI (ACHN renal) of the same molecule?
Its TGI is 60 µM.

What about the TGI (SK-MEL-5 melanoma) of the same molecule?
Its TGI is 29 µM.

What about the TGI (UACC-62 melanoma) of the same molecule?
Its TGI is 33.8 µM.

What about the TGI (NCI-H226 lung) of the same molecule?
The TGI was 60.8 µM.

What about the TGI (BT-549 breast) of the same molecule?
The TGI was over 100 µM.

And the TGI (SF-539 CNS)?
The TGI was 63.4 µM.

And the TGI (UO-31 renal)?
Its TGI is over 100 µM.

What about the TGI (OVCAR-5 ovarian) of the same molecule?
Its TGI is 55.2 µM.

And the TGI (LOX IMVI melanoma)?
The TGI was 28.6 µM.

And the TGI (HOP-92 NSCLC)?
Its TGI is 51.7 µM.

And the TGI (MDA-N)?
The TGI was 74.8 µM.

What about the TGI (OVCAR-8 ovarian) of the same molecule?
Its TGI is 84.6 µM.

What about the TGI (MOLT-4 leukemia) of the same molecule?
The TGI was 53 µM.

What about the TGI (HS 578T breast) of the same molecule?
Its TGI is 68.1 µM.

And the TGI (HOP-62 NSCLC)?
The TGI was 40.3 µM.

And the TGI (NCI-H23 lung)?
Its TGI is over 100 µM.

What about the TGI (HCC-2998 colon) of the same molecule?
The TGI was 28.4 µM.

What about the TGI (KM12 colon) of the same molecule?
Its TGI is 37.3 µM.

What about the TGI (786-0 renal) of the same molecule?
Its TGI is over 100 µM.

What about the TGI (HCT-15 colon) of the same molecule?
Its TGI is 31.3 µM.

And the TGI (CAKI-1 renal)?
Its TGI is 66.8 µM.

And the TGI (EKVX NSCLC)?
Its TGI is 64.9 µM.

And the TGI (T-47D breast)?
The TGI was over 100 µM.

And the TGI (DU-145 prostate)?
The TGI was over 100 µM.

What about the TGI (MCF7 breast) of the same molecule?
Its TGI is 72.9 µM.

And the TGI (OVCAR-3 ovarian)?
The TGI was 31.4 µM.

And the TGI (SN12C renal)?
The TGI was 59.1 µM.

What about the TGI (A498 renal) of the same molecule?
Its TGI is 76.3 µM.

And the TGI (NCI-H522 lung)?
Its TGI is 45.4 µM.

And the TGI (K-562 leukemia)?
Its TGI is 61.7 µM.

And the TGI (HCT-116 colon)?
Its TGI is 25.1 µM.

What about the TGI (RXF 393 renal) of the same molecule?
Its TGI is 51.7 µM.

What about the TGI (HT29 colon) of the same molecule?
The TGI was 37.5 µM.

And the TGI (UACC-257 melanoma)?
The TGI was 48 µM.

And the TGI (COLO 205 colon)?
The TGI was 43.7 µM.

And the TGI (SNB-19 CNS)?
The TGI was over 100 µM.

And the TGI (OVCAR-4 ovarian)?
Its TGI is over 100 µM.

What about the TGI (SR leukemia) of the same molecule?
The TGI was 43.6 µM.

What about the TGI (SNB-75 CNS) of the same molecule?
Its TGI is 71.3 µM.

What about the TGI (MDA-MB-231 breast) of the same molecule?
Its TGI is 63 µM.

What about the TGI (U251 CNS) of the same molecule?
The TGI was 29.6 µM.

And the TGI (NCI/ADR-RES ovarian)?
The TGI was 89.8 µM.

And the TGI (TK-10 renal)?
The TGI was over 100 µM.

What about the TGI (SK-MEL-28 melanoma) of the same molecule?
The TGI was 23.5 µM.

And the TGI (SK-MEL-2 melanoma)?
Its TGI is 30.8 µM.

What about the TGI (HL-60(TB) leukemia) of the same molecule?
Its TGI is 36.1 µM.

And the TGI (SF-295 CNS)?
Its TGI is 60.5 µM.

And the TGI (NCI-H460 lung)?
The TGI was 16 µM.

And the TGI (SF-268 CNS)?
Its TGI is over 100 µM.

What about the TGI (A549 NSCLC) of the same molecule?
The TGI was over 100 µM.
